The source of these data is PubChem BioAssay (NCI).

Values joined by “and” are separate entries in the source; they are usually repeats but may differ in a detail not shown here. Equal values may be shown once.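 These data come from cells grown in 96-well plates and exposed to compound for 48 hours at five concentrations. GI50 marks 50% less growth. TGI marks complete inhibition of growth.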 Where a SMILES comes first, the peptide text is derived from it. [ ]: non-standard residue; d: D form. 2Nal = N[CH](Cc1ccc2ccccc2c1)C(=O)O

Common to all, as to assay: growth of human tumour cells (NCI), 48 h
Assay [1] concerns SF-539 CNS.
Assay [2] has as its system RPMI-8226 leukemia.
Assay [3] deals with NCI-H460 lung.
The test system of assay [4] is TK-10 renal.
For assay [5], the system named is UACC-257 melanoma.
In assay [6] the test system is NCI-H226 lung.
Assay [7] relates to 786-0 renal.
Assay [8] has as its system HCC-2998 colon.
Assay [9] relates to SK-OV-3 ovarian.
The subject of assay [10] is SF-295 CNS.

On to `O=C(NN1C(=O)CSC12CCCC2)C(O)c1ccccc1` (stereo unspecified), for which the GI50 in assay [1], in [2], in [3], in [4], in assay [5] and in [6] was over 100 µM throughout. For the same compound, the GI50 in assay [7], in assay [8], in assay [9] and in assay [10] was over 100 µM in each case. Besides, the TGI in assay [1], in [2], in [3], in assay [4], in assay [5] and in [6] was over 100 µM throughout. For the same compound, the TGI in assay [7], in [8], in assay [9] and in assay [10] was over 100 µM throughout.
For `COC(=O)C(=O)C(C(=O)C=C(C)C)C(=O)C(=O)Nc1nc2ccc([N+](=O)[O-])cc2s1` (stereo unspecified), the TGI in [1], in assay [2], in assay [3], in assay [4], in assay [5] and in assay [6] was over 100 µM throughout. For the same compound, the TGI in [7], in assay [8] and in assay [9] was over 100 µM each time.
In the case of `O=C(c1ccccc1)c1c(CC(O)c2ccccc2)n(C(=O)c2ccccc2)c2ccccc12` (stereo unspecified), the TGI in assay [1], in assay [2], in [3], in assay [4], in assay [5] and in assay [6] was over 100 µM in each case. Also, the TGI in assay [7], in [8] and in [10] was over 100 µM throughout.
On to `CC(C)C(NC(=O)C(CCCCN)NC(=O)C(Cc1c[nH]c2ccccc12)NC(=O)C(Cc1ccc(O)cc1)NC(=O)C(CS)NC(=O)C(N)Cc1ccc2ccccc2c1)C(=O)NC(CS)C(=O)NC(C(N)=O)C(C)O` (stereo unspecified) (H-[2Nal]CYWKVCT-NH2; configuration not given here), for which the GI50 in assay [1], in assay [2], in [3], in assay [5], in assay [7] and in assay [8] was over 100 µM in each case. Besides, the GI50 in [9] and in assay [10] was over 100 µM throughout. Moreover, the TGI in assay [1] is over 100 µM; in assay [2], over 100 µM; in [3], over 100 µM; in assay [5], over 100 µM; in assay [6], over 12.5 µM; in assay [7], over 100 µM. Further, the TGI in assay [8], in assay [9] and in assay [10] was over 100 µM throughout.
Turning to `NNC(=S)Nc1cccc(Cl)c1`, the TGI in assay [1], in assay [2], in [3], in [4], in assay [5] and in [7] was over 100 µM each time. Moreover, the TGI in assay [8], in assay [9] and in assay [10] was over 100 µM each time.
On to `COC(=O)c1ccc2c(c1)c1c(C)c3ccncc3c(C)c1n2C`, for which the GI50 is 0.332 µM in assay [1]; 0.259 µM in [2]; 0.296 µM in assay [3]; 0.89 µM in [4]; 0.352 µM in [6]; 0.268 µM in [7]. The GI50 in [8] is 3.86 µM; in [9] it was 0.471 µM; in assay [10], 0.0647 µM. Also, the TGI stood at 45.1 µM in [1]; 25.1 µM in assay [2]; 12.6 µM in assay [3]; 70.3 µM in assay [4]; 13.2 µM in assay [6]; 18 µM in assay [7]. In addition, the figures for the TGI in assay [8], in assay [9] and in [10] were over 100 µM, over 100 µM and 7.48 µM, respectively.
For `COc1ccc2c(c1)N(CCO)C1=C(C(=O)OC1)C2c1ccccc1` (stereo unspecified), the GI50 in [2] was 1.78 µM; in assay [3], 1.77 µM; in [4], 2.11 µM; in assay [5] it was 1.87 µM; in assay [6], 1.55 µM; in assay [7], 2.7 µM. Also, the GI50 was 3.21 µM in assay [8], 1.9 µM in assay [9] and 0.888 µM in assay [10]. Besides, the TGI in assay [2] was over 50 µM; in assay [3], 12.5 µM; in assay [4], over 50 µM; in assay [5] it was over 50 µM; in assay [6] it was 19 µM; in assay [7], over 50 µM. For the same compound, the TGI was over 50 µM in assay [8], over 50 µM in [9] and 2.73 µM in assay [10].
Regarding `O=C1C2ON3c4ccccc4C(=O)C3(c3ccccc3)C2C(=O)N1c1ccccc1` (stereo unspecified), the TGI in assay [1], in assay [2], in [5], in assay [6], in assay [7] and in [8] was over 100 µM in each case. Moreover, the TGI in assay [9] and in [10] was over 100 µM throughout.
Regarding `O=C(Nc1nc(-c2ccc(Cl)cc2)nc2c1sc(=S)n2-c1ccccc1)C(F)(F)F`, the GI50 is 1.98 µM in assay [1]; 8.37 µM in assay [2]; 2.72 µM in assay [3]; 10.7 µM in [5]; 2.89 µM in [6]; 1.67 µM in assay [7]. For the same compound, the GI50 is 10.3 µM in [8], 2.71 µM in assay [9] and 1.71 µM in assay [10]. Moreover, the TGI in assay [1] is 3.88 µM; in assay [2], over 100 µM; in assay [3], 7.26 µM; in assay [5], 60 µM; in [6] it was 9.61 µM; in [7] it was 3.27 µM. For the same compound, the TGI in assay [8] is over 100 µM; in assay [9] it was 8.1 µM; in [10], 4.01 µM.
As for `COc1ccc(-c2nc(-c3cnccn3)n(COCCO)n2)cc1`, the TGI in [1], in assay [2], in assay [3], in assay [4], in assay [5] and in [7] was over 100 µM in each case. The TGI in assay [8], in assay [9] and in [10] was over 100 µM in each case.
`CCCCCCCCCCCCCC(=O)OCC1OC(n2cc(F)c(=O)[nH]c2=O)C(N)C(OC(=O)CCCCCCCCCCCCC)C1O` (stereo unspecified): the TGI in assay [1], in [2], in [3], in assay [4], in assay [5] and in assay [7] was over 100 µM each time. The TGI in assay [8], in assay [9] and in [10] was over 100 µM each time.
As to `OC1CCC[C@@H]1Sc1ccccc1` (stereo partly specified), the TGI in assay [1], in assay [2], in [3], in assay [4], in [5] and in assay [7] was over 100 µM each time. In addition, the TGI in assay [8], in assay [9] and in [10] was over 100 µM each time.
With `NC(=Nc1nc(-c2ccccn2)cc2ccccc12)c1ccccn1`, the GI50 was 0.189 µM in assay [1]; under 0.0175 µM in assay [2]; 0.099 µM in [3]; 0.198 µM in assay [4]; 0.237 µM in assay [6]; 0.0177 µM in [7]. The GI50 in assay [9] was 0.263 µM. The TGI in [1] was 0.743 µM and 2.08 µM; in [2] it was 0.515 µM; in assay [4], over 100 µM; in [5], 0.794 µM and 1.15 µM; in assay [6], 23 µM; in assay [8], over 100 µM. Also, in [9], the TGI was over 19.4 µM.
Consider `CCCCCCCCCOC(=S)NCCCCC`, for which the TGI in assay [1] was 41.3 µM; in assay [2], 40 µM; in assay [3] it was 64 µM; in [4], 56.4 µM; in [5], 62.1 µM; in assay [7], over 100 µM. The TGI in [8] was over 100 µM; in assay [9], 87.7 µM; in assay [10], over 100 µM.
In the case of `COC(=O)C1=C(O)[C@H](C(=O)OC)[C@]2(O)[C@@H](C(=O)OC)[C@H]1C[C@@H](c1ccc(OC(=O)/C=C/c3ccco3)cc1)[C@@H]2C(=O)OC`, the GI50 in assay [2] was 0.293 µM; in [3], 33 µM; in assay [4], 47.1 µM; in assay [5], 65.5 µM; in [6], 15.8 µM; in [7] it was 11.8 µM. The figures for the GI50 in [8] and in assay [10] were 7 µM and 19.6 µM, respectively. Also, the TGI in assay [2] is 57.5 µM; in assay [3] it was over 100 µM; in assay [4], over 100 µM; in [5], over 100 µM; in assay [6] it was 37.1 µM; in assay [7], 30.6 µM. For the same compound, the results for the TGI in assay [8] and in [10] were 19.3 µM and 65.2 µM, respectively.
With `O=C(Nc1cccnc1)c1ccc2ccc3ccc(C(=O)Nc4cccnc4)nc3c2n1`, the GI50 in assay [2] is 0.0876 µM; in assay [3], 0.0537 µM; in [6] it was 0.128 µM; in assay [7], 0.206 µM; in [8] it was 0.0648 µM; in assay [10], 0.252 µM. In addition, the TGI in [2], in assay [4], in assay [6], in [7], in [8] and in assay [10] was over 100 µM throughout.
With `Cc1cc(C)nc(NS(=O)(=O)c2ccc(NC(=O)c3ccc(Cl)c4c(Nc5ccc(S(=O)(=O)N=C(N)N)cc5)c5ccccc5nc34)cc2)n1`, the TGI is over 100 µM in [1]; over 100 µM in assay [2]; over 100 µM in [4]; over 100 µM in [5]; over 100 µM in assay [6]; 96.1 µM in assay [7]. In addition, the TGI in [8] was 78.2 µM; in [9], over 100 µM; in assay [10] it was over 100 µM.
As for `CC1=NN(C(=O)c2ccc(Cl)cc2)C(=O)/C1=C/c1ccco1`, the TGI in assay [1], in [2], in assay [3], in assay [4], in [5] and in assay [7] was over 100 µM each time. Besides, the TGI in assay [8], in [9] and in assay [10] was over 100 µM throughout.
In the case of `COc1cc(/C=C\c2ccc(OC(C)=O)cc2)cc(OC)c1OC`, the TGI in assay [2], in [3], in [5], in assay [6], in assay [7] and in assay [8] was over 100 µM throughout. The TGI in assay [9] was over 100 µM.
With `C=C1NC(=O)C(CC(C(=O)C(=O)Nc2c(C)cccc2C(C)(C)C)C(=O)c2ccc3ccccc3c2)C(=O)N1` (stereo unspecified), the TGI in assay [1], in assay [2], in [3], in assay [5], in assay [6] and in [7] was over 100 µM in each case. The TGI in assay [8], in assay [9] and in [10] was over 100 µM each time.
Consider `O=C1[C@H](Cl)[C@H]2c3cc4ccccc4nc3Oc3ccccc3N12`, for which the TGI was 65.5 µM in [2]; over 100 µM in [3]; over 100 µM in [4]; over 100 µM in assay [5]; over 100 µM in assay [6]; over 100 µM in assay [7]. For the same compound, the TGI in assay [8], in [9] and in assay [10] was over 100 µM each time.
For `C/C(CCn1[nH]c(=O)ccc1=O)=N\Nc1ccc([N+](=O)[O-])cc1[N+](=O)[O-]`, the TGI in [1], in [2], in [3], in assay [4], in assay [5] and in assay [6] was over 100 µM throughout. Moreover, the TGI in [7], in assay [8] and in assay [10] was over 100 µM each time.
